“Also recorded” adds a separate entry of the source. Counter-ions that a name gives are not always drawn.
Test system: blood drawn from mice
Assay: Blood coagulation assay (presence or absence of blood clots, observed with CCD camera)
Method: Rats or mice (2-3 months old) were sacrificed using CO2 and their blood was extracted directly from the heart using 1 ml syringe and a 23-gauge needle. Blood was transferred to two groups of experimental tubes (400 microliters in each): empty tubes, and tubes containing citrate at a final concentration of 0.35% by weight (e.g., 50 μl of a respective 3.2% stock solution of trisodium citrate in water).
The anti-coagulant activity of the citrate powder was confirmed by recording absence of clot formation during the entire experiment, and thereafter, each of the following components was added to the tubes in both groups, at varying amounts:
=Coral skeleton particulates prepared from Porites lutea (to achieve a final concentration of 50-200 mg/ml)
=Coral skeleton particulates prepared from Stylophora subseriata (to achieve a final concentration of 50-200 mg/ml)
=Geological aragonite (to achieve a final concentration of 50-200 mg/ml)
=amorphous calcium carbonate (ACC) (1-200 mg, to achieve a final concentration of 2-50 mg/ml)
=Glass beads (0.1 mm diameter; to achieve a final concentration of 100 mg/ml)
Coagulation and anti-coagulation activity (presence and absence, respectively, of blood clots) was observed using a CCD camera.

O=C(O)CC(O)(CC(=O)O)C(=O)O [citrate, Trisodium citrate]
effect of citrate by itself on clotting (blood drawn from mice, 0.35% by weight of citrate, no calcium carbonate): blocked clotting; also recorded: anti-coagulation effect

O=C([O-])[O-].[K+].[K+] [potassium carbonate]
coagulation time of citrate-containing blood (final concentration 50 mg/ml, citrate-containing blood, data not shown): 40 to 45 min

Source: patent publication US10695364B2, “Anti-hemorrhaging compositions” (Ariel-University Research and Development Company Ltd., priority 2015, dated 2020)
